Measured values reported in patent US11130756B2, “[1,2,4]Triazolo[4,3-A]pyridinyl substituted indole compounds” (BRISTOL-MYERS SQUIBB COMPANY, priority 2017, dated 2021).

How the values were obtained:
Format in all cases: cell-based
[1] = target: T1, human TLR7 (Homo sapiens, UniProt Q9NYK1); assay: TLR7 inhibition reporter assay (HEK-Blue, SEAP); details: HEK-Blue cells overexpressing human TLR7, gardiquimod 7.5 μM, 22 hour incubation
T1 construct: host or cells: HEK-Blue cells
T1 sequence (Q9NYK1 27-1049): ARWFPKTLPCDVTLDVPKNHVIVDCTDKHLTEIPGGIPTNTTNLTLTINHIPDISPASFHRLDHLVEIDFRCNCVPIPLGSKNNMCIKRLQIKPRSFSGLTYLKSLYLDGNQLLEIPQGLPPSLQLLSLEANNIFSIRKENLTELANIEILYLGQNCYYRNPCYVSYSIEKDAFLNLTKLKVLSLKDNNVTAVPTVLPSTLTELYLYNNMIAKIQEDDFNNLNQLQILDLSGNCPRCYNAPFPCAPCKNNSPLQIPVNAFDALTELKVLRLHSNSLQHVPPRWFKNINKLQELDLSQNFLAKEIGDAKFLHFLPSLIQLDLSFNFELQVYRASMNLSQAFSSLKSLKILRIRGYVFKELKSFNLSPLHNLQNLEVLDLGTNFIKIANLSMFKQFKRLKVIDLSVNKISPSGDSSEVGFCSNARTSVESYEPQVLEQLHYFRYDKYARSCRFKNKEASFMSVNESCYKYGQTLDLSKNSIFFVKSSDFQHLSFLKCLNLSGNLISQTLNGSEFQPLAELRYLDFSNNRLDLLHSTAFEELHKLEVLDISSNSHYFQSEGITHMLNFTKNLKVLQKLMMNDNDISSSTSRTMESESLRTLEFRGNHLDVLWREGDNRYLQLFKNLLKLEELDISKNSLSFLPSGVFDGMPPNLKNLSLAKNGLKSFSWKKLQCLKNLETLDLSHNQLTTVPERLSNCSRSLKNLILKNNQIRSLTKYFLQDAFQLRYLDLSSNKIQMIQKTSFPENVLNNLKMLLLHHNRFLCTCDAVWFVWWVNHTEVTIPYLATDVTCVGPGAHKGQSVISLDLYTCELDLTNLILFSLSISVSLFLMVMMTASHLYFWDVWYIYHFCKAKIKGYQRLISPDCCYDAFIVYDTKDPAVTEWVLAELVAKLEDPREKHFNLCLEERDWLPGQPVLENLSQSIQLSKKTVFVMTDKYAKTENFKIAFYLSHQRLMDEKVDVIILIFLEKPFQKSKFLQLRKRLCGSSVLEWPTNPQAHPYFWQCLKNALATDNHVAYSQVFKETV
Summary of the method: (§1)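 Human TLR7/8/9 HEK-Blue reporter lines; dose range 0.05 nM–50 μM; 30 min RT preincubation; stimulus gardiquimod 7.5 μM / R848 15.9 μM / ODN2006 5 nM respectively; 22 h, 37 °C; SEAP detected colorimetrically.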

[2] = target: T2, human TLR8 (Homo sapiens, UniProt Q9NR97); assay: TLR8 inhibition reporter assay (HEK-Blue, SEAP); details: HEK-Blue cells overexpressing human TLR8, R848 15.9 μM, 22 hour incubation
T2 construct: host or cells: HEK-Blue cells
T2 sequence (Q9NR97 27-1041): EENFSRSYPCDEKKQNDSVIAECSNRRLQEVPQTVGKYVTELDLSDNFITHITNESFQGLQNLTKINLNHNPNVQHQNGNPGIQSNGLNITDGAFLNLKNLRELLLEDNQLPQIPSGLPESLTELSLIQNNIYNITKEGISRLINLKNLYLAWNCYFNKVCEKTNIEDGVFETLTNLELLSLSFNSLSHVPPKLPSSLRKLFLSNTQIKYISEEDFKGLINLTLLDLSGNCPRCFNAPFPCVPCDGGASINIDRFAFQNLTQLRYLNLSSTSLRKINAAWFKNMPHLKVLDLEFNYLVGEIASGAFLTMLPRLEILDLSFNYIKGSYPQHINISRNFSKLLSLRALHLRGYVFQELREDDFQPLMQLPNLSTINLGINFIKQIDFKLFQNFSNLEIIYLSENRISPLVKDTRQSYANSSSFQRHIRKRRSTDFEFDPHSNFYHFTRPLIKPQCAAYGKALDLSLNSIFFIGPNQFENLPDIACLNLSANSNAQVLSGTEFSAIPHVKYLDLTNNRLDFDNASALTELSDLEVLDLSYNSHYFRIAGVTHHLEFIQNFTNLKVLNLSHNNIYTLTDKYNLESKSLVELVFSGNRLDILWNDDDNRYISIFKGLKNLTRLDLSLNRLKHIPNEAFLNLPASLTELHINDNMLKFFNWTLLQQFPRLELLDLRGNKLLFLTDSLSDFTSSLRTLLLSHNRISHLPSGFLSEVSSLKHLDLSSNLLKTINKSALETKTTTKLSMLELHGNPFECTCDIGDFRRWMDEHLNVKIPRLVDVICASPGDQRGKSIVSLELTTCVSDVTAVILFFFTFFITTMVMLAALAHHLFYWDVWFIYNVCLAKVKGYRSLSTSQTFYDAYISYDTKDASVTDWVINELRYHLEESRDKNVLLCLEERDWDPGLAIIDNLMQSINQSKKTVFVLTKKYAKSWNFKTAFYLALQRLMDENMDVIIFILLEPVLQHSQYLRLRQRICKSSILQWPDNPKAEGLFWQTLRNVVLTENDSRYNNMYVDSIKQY
Summary of the method: as §1

[3] = target: T3, human TLR9 (Homo sapiens, UniProt Q9NR96); assay: TLR9 inhibition reporter assay (HEK-Blue, SEAP); details: HEK-Blue cells overexpressing human TLR9, ODN2006 5 nM, 22 hour incubation
T3 construct: host or cells: HEK-Blue cells
T3 sequence (Q9NR96 26-1032): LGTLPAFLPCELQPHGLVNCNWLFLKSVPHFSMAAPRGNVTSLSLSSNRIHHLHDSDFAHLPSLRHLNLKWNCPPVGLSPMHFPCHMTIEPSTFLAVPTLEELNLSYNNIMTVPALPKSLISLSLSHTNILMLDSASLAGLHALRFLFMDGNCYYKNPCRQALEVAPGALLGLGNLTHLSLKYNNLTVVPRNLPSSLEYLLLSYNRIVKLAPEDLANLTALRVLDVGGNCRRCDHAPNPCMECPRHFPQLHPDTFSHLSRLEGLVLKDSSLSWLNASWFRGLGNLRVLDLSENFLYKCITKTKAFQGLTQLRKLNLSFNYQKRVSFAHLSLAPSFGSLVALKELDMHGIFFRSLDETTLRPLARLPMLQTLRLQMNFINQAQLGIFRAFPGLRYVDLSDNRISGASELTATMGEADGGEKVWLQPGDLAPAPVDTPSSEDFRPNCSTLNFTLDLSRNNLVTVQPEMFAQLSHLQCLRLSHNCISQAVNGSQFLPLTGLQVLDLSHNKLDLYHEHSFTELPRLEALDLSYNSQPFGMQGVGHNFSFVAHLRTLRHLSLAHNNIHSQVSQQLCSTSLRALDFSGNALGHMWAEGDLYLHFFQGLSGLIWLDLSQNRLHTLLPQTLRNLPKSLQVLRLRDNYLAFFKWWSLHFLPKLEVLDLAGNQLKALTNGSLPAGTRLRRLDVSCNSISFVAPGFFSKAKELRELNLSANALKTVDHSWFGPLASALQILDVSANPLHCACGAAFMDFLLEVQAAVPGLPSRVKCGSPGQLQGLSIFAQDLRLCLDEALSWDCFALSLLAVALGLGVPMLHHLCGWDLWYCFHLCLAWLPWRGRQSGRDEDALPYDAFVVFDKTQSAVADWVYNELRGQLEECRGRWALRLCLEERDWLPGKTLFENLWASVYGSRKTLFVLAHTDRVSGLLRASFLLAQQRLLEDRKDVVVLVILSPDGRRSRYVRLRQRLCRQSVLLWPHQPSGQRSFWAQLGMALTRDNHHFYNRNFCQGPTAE
Summary of the method: as §1

| Compound | IC50 [1] | IC50 [2] | IC50 [3] |
| --- | --- | --- | --- |
| COc1ncc(CN2CCC(c3ccc4[nH]c(-c5cn6cnnc6c(C)c5C)c(C(C)C)c4c3)CC2)cn1 [Example 89, 6-(3-isopropyl-5-(1-((2-methoxypyrimidin-5-yl)methyl)piperidin-4-yl)-1H-indol-2-yl)-7,8-dimethyl-[1,2,4]triazolo[4,3-a]pyridine] | 0.1 nM | 3.3 nM | 773 nM |
| Cc1nnc2ccc(-c3[nH]c4ccc(C5CCN(C(=O)CN(C)C)CC5)cc4c3C(C)C)cn12 [Example 106, 2-(dimethylamino)-1-(4-(3-isopropyl-2-(3-methyl-[1,2,4]triazolo[4,3-a]pyridin-6-yl)-1H-indol-5-yl)piperidin-1-yl)ethan-1-one] | 43 nM | 39.1 nM | 382 nM |
| Cc1c(-c2[nH]c3ccc(C4CCN(C5CCOC5)CC4)cc3c2C(C)C)cn2cnnc2c1C (single isomer, unassigned) [Example 102, 6-(3-isopropyl-5-(1-(tetrahydrofuran-3-yl)piperidin-4-yl)-1H-indol-2-yl)-7,8-dimethyl-[1,2,4]triazolo[4,3-a]pyridine] | 3.9 nM | 8.2 nM | 5460 nM |
| Cc1cc2nncn2cc1-c1[nH]c2ccc(C3CCN(C(=O)CN(C)C)CC3)cc2c1C(C)C [Example 107, 2-(dimethylamino)-1-(4-(3-isopropyl-2-(7-methyl-[1,2,4]triazolo[4,3-a]pyridin-6-yl)-1H-indol-5-yl)piperidin-1-yl)ethan-1-one] | 40.7 nM | 591 nM | 918 nM |
| Cc1c(-c2[nH]c3ccc(C4CCN(CCN5CCCS5(=O)=O)CC4)cc3c2C(C)C)cn2cnnc2c1C [Example 52, 2-(2-(4-(2-(7,8-dimethyl-[1,2,4]triazolo[4,3-a]pyridin-6-yl)-3-isopropyl-1H-indol-5-yl)piperidin-1-yl)ethyl)isothiazolidine 1,1-dioxide] | 1.5 nM | 5.8 nM | 1280 nM |
| Cc1c(-c2[nH]c3ccc(C4CCN(C5CC(C)(C)OC(C)(C)C5)CC4)cc3c2C(C)C)cn2cnnc2c1C [Example 100, 6-(3-isopropyl-5-(1-(2,2,6,6-tetramethyltetrahydro-2H-pyran-4-yl)piperidin-4-yl)-1H-indol-2-yl)-7,8-dimethyl-[1,2,4]triazolo[4,3-a]pyridine] | 13.7 nM | 31.6 nM | 4440 nM |
| Cc1c(-c2[nH]c3ccc(C4C[C@H]5CC[C@@H](C4)N5CC4(C)COC4)cc3c2C(C)C)cn2cnnc2c1C (single isomer, unassigned) [Example 121] | 3.2 nM | 47.6 nM | 4840 nM |
| Cc1c(-c2[nH]c3ccc(C4CC(C)N(CCS(C)(=O)=O)C(C)C4)cc3c2C(C)C)cn2cnnc2c1C (single isomer, unassigned) [Example 110, 6-(5-(2,6-dimethyl-1-(2-(methylsulfonyl)ethyl)piperidin-4-yl)-3-isopropyl-1H-indol-2-yl)-7,8-dimethyl-[1,2,4]triazolo[4,3-a]pyridine] | 6.3 nM | 19.4 nM | 6630 nM |

More lines, now with the values ahead:

| IC50 [1] | IC50 [2] | IC50 [3] | Compound |
| --- | --- | --- | --- |
| 0.9 nM | 4.6 nM | 2270 nM | Cc1c(-c2[nH]c3ccc(C4CCN(CC(C)(C)O)CC4)cc3c2C(C)C)cn2cnnc2c1Cl [Example 61, 1-(4-(2-(8-chloro-7-methyl-[1,2,4]triazolo [4,3-a]pyridin-6-yl)-3-isopropyl-1H-indol-5-yl)piperidin-1-yl)-2-methylpropan-2-ol] |
| 4.8 nM | 12.5 nM | 528 nM | Cc1cc(-c2[nH]c3ccc(C4CCNCC4)cc3c2C(C)C)cn2cnnc12 [Example 2, 6-(3-isopropyl-5-(piperidin-4-yl)-1H-indol-2-yl)-8-methyl-[1,2,4]triazolo[4,3-a]pyridine] |
| 0.9 nM | 10.6 nM | 1100 nM | COc1cc(-c2[nH]c3ccc(C4CCN(CCCC(F)(F)F)CC4)cc3c2C(C)C)cn2cnnc12 [Example 55, 6-(3-isopropyl-5-(1-(4,4,4-trifluorobutyl)piperidin-4-yl)-1H-indol-2-yl)-8-methoxy-[1,2,4]triazolo[4,3-a] pyridine] |
| 3.8 nM | 21.9 nM | 2070 nM | Cc1c(-c2[nH]c3ccc(C4CCN(Cc5ncn(C)n5)CC4)cc3c2C(C)C)cn2cnnc2c1Cl [Example 47, 8-chloro-6-(3-isopropyl-5-(1-((1-methyl-1H-1,2,4-triazol-3-yl)methyl)piperidin-4-yl)-1H-indol-2-yl)-7-methyl-[1,2,4]triazolo[4,3-a] pyridine] |
| 3.2 nM | 8.1 nM | 2310 nM | Cc1c(-c2[nH]c3ccc(C4CCN(Cc5ncn(C)n5)CC4)cc3c2C(C)C)cn2cnnc2c1C [Example 45, 6-(3-isopropyl-5-(1-((1-methyl-1H-1,2,4-triazol-3-yl)methyl)piperidin-4-yl)-1H-indol-2-yl)-7,8-dimethyl-[1,2,4]triazolo[4,3-a]pyridine] |
